Data published in paper PMC4780864, “Family-wide Structural Analysis of Human Numb-Associated Protein Kinases” (Structure(London, England:1993), 2016).

Key:
Assay in all cases: biochemical
MPSK1 = biological target: T1, MPSK1 (Homo sapiens, UniProt O75716); parameters: Thermal shift assay (DSF, SYPRO Orange), 2 uM kinase domain, mean delta Tm of triplicates versus DMSO; conditions: read-out: MPSK1
T1 construct: gene STK16; catalytic domain-containing construct
Protocol: (§1) All measurements were performed in triplicate and mean values were reported for all compounds (Table S1). […] However, NAKs are often omitted from selectivity panels, including commercial screens.

GAK = biological target: T2, GAK (Homo sapiens, UniProt O14976); parameters: Thermal shift assay (DSF, SYPRO Orange), 2 uM kinase domain, mean delta Tm of triplicates versus DMSO; conditions: read-out: GAK
T2 construct: catalytic domain-containing construct
T2 sequence (O14976 1-1311): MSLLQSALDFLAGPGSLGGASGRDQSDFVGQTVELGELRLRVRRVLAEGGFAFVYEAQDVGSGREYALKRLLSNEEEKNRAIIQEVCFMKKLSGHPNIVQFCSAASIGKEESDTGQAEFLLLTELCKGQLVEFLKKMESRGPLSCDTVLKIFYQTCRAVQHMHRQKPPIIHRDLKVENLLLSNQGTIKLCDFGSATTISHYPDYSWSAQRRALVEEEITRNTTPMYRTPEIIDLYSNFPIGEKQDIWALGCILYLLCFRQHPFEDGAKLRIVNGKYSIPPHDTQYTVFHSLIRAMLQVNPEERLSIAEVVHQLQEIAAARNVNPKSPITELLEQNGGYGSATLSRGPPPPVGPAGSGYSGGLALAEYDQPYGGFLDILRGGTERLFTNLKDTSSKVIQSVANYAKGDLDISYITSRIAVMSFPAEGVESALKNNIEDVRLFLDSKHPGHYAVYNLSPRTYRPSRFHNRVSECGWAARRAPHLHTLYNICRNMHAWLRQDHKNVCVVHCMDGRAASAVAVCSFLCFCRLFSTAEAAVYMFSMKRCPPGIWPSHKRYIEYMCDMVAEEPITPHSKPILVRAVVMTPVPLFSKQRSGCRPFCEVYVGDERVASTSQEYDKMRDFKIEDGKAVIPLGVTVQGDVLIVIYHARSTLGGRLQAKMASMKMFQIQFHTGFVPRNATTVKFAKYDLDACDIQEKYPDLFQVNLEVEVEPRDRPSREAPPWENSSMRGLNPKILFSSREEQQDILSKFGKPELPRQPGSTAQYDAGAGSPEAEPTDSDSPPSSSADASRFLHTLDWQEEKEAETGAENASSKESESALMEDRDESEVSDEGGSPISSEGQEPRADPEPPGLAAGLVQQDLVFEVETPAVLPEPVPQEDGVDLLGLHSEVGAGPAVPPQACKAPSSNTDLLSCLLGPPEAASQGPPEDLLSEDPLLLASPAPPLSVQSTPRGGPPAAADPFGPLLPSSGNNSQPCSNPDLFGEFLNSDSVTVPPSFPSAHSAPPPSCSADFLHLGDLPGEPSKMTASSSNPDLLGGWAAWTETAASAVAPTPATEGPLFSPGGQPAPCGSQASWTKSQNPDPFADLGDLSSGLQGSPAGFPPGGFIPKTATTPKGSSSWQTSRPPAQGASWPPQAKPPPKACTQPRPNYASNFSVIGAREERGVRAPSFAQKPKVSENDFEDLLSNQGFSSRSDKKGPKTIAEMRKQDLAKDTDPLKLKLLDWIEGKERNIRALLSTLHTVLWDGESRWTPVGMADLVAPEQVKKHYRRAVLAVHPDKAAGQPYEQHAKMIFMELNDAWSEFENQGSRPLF
Protocol: as §1

BIKE = biological target: T3, BIKE (Homo sapiens, UniProt Q9NSY1); parameters: Thermal shift assay (DSF, SYPRO Orange), 2 uM kinase domain, mean delta Tm of triplicates versus DMSO; conditions: read-out: BIKE
T3 construct: gene BMP2K; catalytic domain-containing construct
Protocol: as §1

AAK1 = AAK1 (Homo sapiens, UniProt Q2M2I8); parameters: kinase domain; Thermal shift assay (DSF, SYPRO Orange), 2 uM kinase domain, mean delta Tm of triplicates versus DMSO; conditions: read-out: AAK1
Protocol: as §1

T3 sequence (Q9NSY1 whole entry, the tested form may be a part): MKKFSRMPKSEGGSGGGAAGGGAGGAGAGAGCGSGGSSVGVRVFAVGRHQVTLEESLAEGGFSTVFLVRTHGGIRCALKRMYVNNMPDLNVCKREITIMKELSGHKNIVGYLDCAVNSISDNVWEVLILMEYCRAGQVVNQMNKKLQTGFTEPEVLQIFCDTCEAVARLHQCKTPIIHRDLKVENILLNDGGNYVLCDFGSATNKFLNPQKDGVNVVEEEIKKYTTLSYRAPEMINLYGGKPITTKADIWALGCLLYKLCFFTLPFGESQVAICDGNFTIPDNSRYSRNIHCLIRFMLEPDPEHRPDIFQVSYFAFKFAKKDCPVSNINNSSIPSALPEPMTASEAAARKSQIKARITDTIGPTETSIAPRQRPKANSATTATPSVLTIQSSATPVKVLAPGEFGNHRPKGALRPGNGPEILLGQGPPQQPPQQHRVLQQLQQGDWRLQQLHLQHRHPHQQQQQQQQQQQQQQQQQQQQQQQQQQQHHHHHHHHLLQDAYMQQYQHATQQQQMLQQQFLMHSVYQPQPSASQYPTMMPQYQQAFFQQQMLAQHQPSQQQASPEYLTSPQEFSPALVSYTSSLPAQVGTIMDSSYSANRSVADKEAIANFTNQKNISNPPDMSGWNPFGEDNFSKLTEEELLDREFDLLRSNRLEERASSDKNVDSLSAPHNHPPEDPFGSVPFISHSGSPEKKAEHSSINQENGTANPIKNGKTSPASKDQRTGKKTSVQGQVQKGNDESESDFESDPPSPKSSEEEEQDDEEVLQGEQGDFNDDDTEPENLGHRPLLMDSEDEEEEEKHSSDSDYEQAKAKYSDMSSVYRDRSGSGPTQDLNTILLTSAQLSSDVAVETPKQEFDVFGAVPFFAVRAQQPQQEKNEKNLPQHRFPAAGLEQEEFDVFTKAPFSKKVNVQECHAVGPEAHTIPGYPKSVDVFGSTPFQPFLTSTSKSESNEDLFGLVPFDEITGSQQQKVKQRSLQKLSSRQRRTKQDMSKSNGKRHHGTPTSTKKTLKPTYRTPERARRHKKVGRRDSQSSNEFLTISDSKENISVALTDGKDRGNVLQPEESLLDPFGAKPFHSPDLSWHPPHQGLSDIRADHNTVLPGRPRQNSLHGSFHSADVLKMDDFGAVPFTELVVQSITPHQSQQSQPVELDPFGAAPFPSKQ
T1 sequence (O75716 whole entry, the tested form may be a part): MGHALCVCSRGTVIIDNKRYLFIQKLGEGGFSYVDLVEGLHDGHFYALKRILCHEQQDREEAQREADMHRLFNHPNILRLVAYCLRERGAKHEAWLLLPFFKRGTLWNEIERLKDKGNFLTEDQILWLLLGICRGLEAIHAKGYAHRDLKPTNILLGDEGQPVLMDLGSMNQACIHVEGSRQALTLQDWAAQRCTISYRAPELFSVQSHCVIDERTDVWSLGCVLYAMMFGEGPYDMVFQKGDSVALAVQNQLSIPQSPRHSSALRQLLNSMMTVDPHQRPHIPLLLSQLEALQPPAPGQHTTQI
Chain of AAK1 (Q2M2I8 27-365 limits assumed): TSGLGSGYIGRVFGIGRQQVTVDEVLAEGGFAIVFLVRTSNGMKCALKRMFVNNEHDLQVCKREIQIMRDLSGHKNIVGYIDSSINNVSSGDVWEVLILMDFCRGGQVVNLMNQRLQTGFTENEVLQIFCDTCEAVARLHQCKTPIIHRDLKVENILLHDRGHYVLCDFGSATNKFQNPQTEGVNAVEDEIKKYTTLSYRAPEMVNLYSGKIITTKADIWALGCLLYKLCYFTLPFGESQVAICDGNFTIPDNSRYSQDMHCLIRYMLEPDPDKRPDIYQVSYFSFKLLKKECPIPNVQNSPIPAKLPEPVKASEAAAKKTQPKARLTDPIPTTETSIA

Row | ΔTm at 12.5 µM (MPSK1) | ΔTm at 12.5 µM (GAK) | ΔTm at 12.5 µM (BIKE) | ΔTm at 12.5 µM (AAK1) | SMILES
1 | 8.84 °C | 7.69 °C | 13 °C | 8.29 °C | O=C(O)c1ccc(-c2c[nH]c3ncc(-c4ccccc4)cc23)cc1C1CCCC1 [GSK650394]
2 | 1.27 °C | 0.74 °C | 0.543 °C | 0.143 °C | CNC(=O)c1c(F)cccc1Nc1nc(Nc2cc3c(ccn3C(=O)CN(C)C)cc2OC)nc2[nH]ccc12 [GSK1838705A]
3 | -0.0133 °C | 0.227 °C | 0.13 °C | -0.16 °C | CCc1cc(Nc2nccc(-c3c(-c4ccc(OC)c(C(=O)Nc5c(F)cccc5F)c4)nc4ccccn34)n2)c(OC)cc1N1CCC(N2CCN(S(C)(=O)=O)CC2)CC1 [GSK1904529A]
4 | 6.45 °C | 3.33 °C | 5.45 °C | 4.05 °C | COc1ncc(-c2ccc3nccc(-c4ccnnc4)c3c2)cc1NS(=O)(=O)c1ccc(F)cc1F [GSK2126458]
5 | 0.97 °C | 3.39 °C | 0.583 °C | 0.47 °C | Cc1cccc(-c2nn3c(c2-c2ccnc4ccc(C(N)=O)cc24)CCC3)n1 [Galunisertib]
6 | 1.52 °C | 1.01 °C | 0.527 °C | 0.29 °C | CC[C@H](Nc1ncnc2[nH]cnc12)c1nc2cccc(F)c2c(=O)n1-c1ccccc1 [Idelalisib]
7 | 0.373 °C | 0.46 °C | 1.76 °C | 0.0867 °C | O=C(Cc1ccc(-c2ccc(OCCN3CCOCC3)cc2)cn1)NCc1ccccc1 [KX2-391]
8 | 1.16 °C | 1.67 °C | 1.13 °C | 1.7 °C | CS(=O)(=O)CCNCc1ccc(-c2ccc3ncnc(Nc4ccc(OCc5cccc(F)c5)c(Cl)c4)c3c2)o1 [Lapatinib]
9 | 1.5 °C | 2.03 °C | 2.49 °C | 2.07 °C | COc1cc2nccc(Oc3ccc(NC(=O)NC4CC4)c(Cl)c3)c2cc1C(N)=O [Lenvatinib]
10 | 5.04 °C | 2.49 °C | 5.72 °C | 1.96 °C | Cc1ccc(F)c(NC(=O)Nc2ccc(-c3cccc4[nH]nc(N)c34)cc2)c1 [Linifanib]
11 | 0.73 °C | -0.6 °C | 0.903 °C | 0.277 °C | C[C@]1(O)C[C@@H](c2nc(-c3ccc4ccc(-c5ccccc5)nc4c3)c3c(N)nccn32)C1 [Linsitinib]
12 | 0.6 °C | -0.617 °C | 0.367 °C | 0.197 °C | Cn1cnc2c(F)c(Nc3ccc(Br)cc3F)c(C(=O)NOCCO)cc21 [MEK-162]
13 | 1.1 °C | -0.83 °C | 0.637 °C | 1.1 °C | NC1(c2ccc(-c3nc4ccn5c(=O)[nH]nc5c4cc3-c3ccccc3)cc2)CCC1 [MK-2206]
14 | 0.99 °C | 1.98 °C | 0.833 °C | 0.547 °C | Cc1ccc(NC(=O)c2ccc(CN3CCN(C)CC3)cc2)cc1Nc1nc(-c2cccnc2)cs1 [Masitinib]
15 | 0.7 °C | 0.437 °C | 0.3 °C | 0.467 °C | CC1(C)CNc2cc(NC(=O)c3cccnc3NCc3ccncc3)ccc21 [Motesanib]
16 | 0.927 °C | 2.52 °C | 1.97 °C | 0.98 °C | CCOc1cc2ncc(C#N)c(Nc3ccc(OCc4ccccn4)c(Cl)c3)c2cc1NC(=O)/C=C/CN(C)C [Neratinib]
17 | 2.48 °C | 5.36 °C | 1.06 °C | 1.13 °C | Cc1cn(-c2cc(NC(=O)c3ccc(C)c(Nc4nccc(-c5cccnc5)n4)c3)cc(C(F)(F)F)c2)cn1 [Nilotinib]

Further lines, the compound ahead of its results:

Row | SMILES | ΔTm at 12.5 µM (MPSK1) | ΔTm at 12.5 µM (GAK) | ΔTm at 12.5 µM (BIKE) | ΔTm at 12.5 µM (AAK1)
18 | CNc1nc(-c2ccc3c(N)n[nH]c3c2)cc(N2C[C@@H](C(=O)NC3CCCCC3)CC[C@H]2C)n1 [GSK2334470] | 0.883 °C | 1.69 °C | 5.35 °C | 4.98 °C
19 | Cc1c(Cn2c(C)nc3c(C(=O)O)cc(N4CCOCC4)cc32)cccc1C(F)(F)F [GSK2636771] | 0.763 °C | -0.483 °C | 0.39 °C | 0.317 °C
20 | Cc1cc(Nc2cc(CN3CCOCC3)c3nc(C)c(Cc4ccc(Cl)cc4F)n3n2)n[nH]1 [Gandotinib] | 9.07 °C | 0.333 °C | 10.2 °C | 6.86 °C
21 | COc1cc2ncnc(Nc3ccc(F)c(Cl)c3)c2cc1OCCCN1CCOCC1 [Gefitinib] | 0.263 °C | 6.66 °C | 2.84 °C | 1.69 °C
22 | CC(C)n1nc(-c2ccc3oc(N)nc3c2)c2c(N)ncnc21 [INK128] | 1.64 °C | 0.577 °C | 0.41 °C | 0.0667 °C
23 | C[C@H](Nc1ncnc2nc[nH]c12)c1cc2cccc(Cl)c2c(=O)n1-c1ccccc1 [IPI-145] | 0.847 °C | -0.497 °C | 0.24 °C | 0.21 °C
24 | C=CC(=O)N1CCC[C@@H](n2nc(-c3ccc(Oc4ccccc4)cc3)c3c(N)ncnc32)C1 [Ibrutinib] | 1.76 °C | -0.293 °C | 0.397 °C | 0.0167 °C
25 | C#Cc1cccc(Nc2ncnc3cc4c(cc23)OCCOCCOCCO4)c1 [Icotinib] | 0.81 °C | 3.33 °C | 4.47 °C | 2.56 °C
26 | CC(C)NC[C@@H](C(=O)N1CCN(c2ncnc3c2[C@H](C)C[C@H]3O)CC1)c1ccc(Cl)cc1 [Ipatasertib] | 0.84 °C | -0.727 °C | 0.34 °C | 0.3 °C
27 | C[C@@H](Oc1ccc2[nH]nc(/C=C/c3cnn(CCO)c3)c2c1)c1c(Cl)cncc1Cl [LY2874455] | 10.3 °C | 5.81 °C | 15.2 °C | 11.6 °C
28 | C[C@]12O[C@H](C[C@]1(O)CO)n1c3ccccc3c3c4c(c5c6ccccc6n2c5c31)CNC4=O [Lestaurtinib] | 11.1 °C | 10.8 °C | 16.5 °C | 13.6 °C
29 | C=CCn1c(=O)c2cnc(Nc3ccc(N4CCN(C)CC4)cc3)nc2n1-c1cccc(C(C)(C)O)n1 [MK-1775] | 1.18 °C | 5.08 °C | 4.38 °C | 4.03 °C
30 | CO[C@@H]1[C@H](N(C)C(=O)c2ccccc2)C[C@H]2O[C@]1(C)n1c3ccccc3c3c4c(c5c6ccccc6n2c5c31)C(=O)NC4 [Midostaurin] | 10.4 °C | 6.33 °C | 14.9 °C | 12.8 °C
31 | CNC(=O)c1nn(C)c2c1C(C)(C)Cc1cnc(Nc3ccc(N4CCN(C)CC4)cc3)nc1-2 [Milciclib] | 10.1 °C | 10.6 °C | 7.73 °C | 5.61 °C
32 | N#CCNC(=O)c1ccc(-c2ccnc(Nc3ccc(N4CCOCC4)cc3)n2)cc1 [Momelotinib] | 11.1 °C | 7.03 °C | 15 °C | 14.6 °C
33 | CCN1CCN(c2ccc(Nc3cc(N(C)C(=O)Nc4c(Cl)c(OC)cc(OC)c4Cl)ncn3)cc2)CC1 [NVP-BGJ398] | 0.66 °C | -0.197 °C | 0.763 °C | 0.41 °C
